Reference: patent publication US12624018B1, “Inhibitors of RIPK2 and medical uses thereof” (Odyssey Therapeutics, Inc., priority 2022, dated 2026)

What was measured:
RIPK2 enzyme = target: T1, RIPK2 enzyme (Homo sapiens, UniProt O43353); test: RIPK2 inhibition (ADP-Glo Kinase Assay); format: biochemical; conditions: RIPK2 5 nM, ATP 150 μM, MBP substrate, read-out: RIPK2 IC50
T1 construct: purchased Carna 09-128
Procedure, shortened: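 Human RIPK2 (5 nM) preincubated with compound 30 min at room temperature in 50 mM HEPES pH 7.5, 10 mM MgCl2, 2 mM DTT, 1 mM EGTA, 0.01% Brij-35, 0.05% BSA; native swine MBP as substrate. ADP formed quantified by ADP-Glo luminescence; percent inhibition relative to DMSO and no-enzyme controls.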

human NOD2 signaling = test: Inhibition of human NOD2 signaling in HEK-Blue-hNOD2 cells (L18-MDP stimulated, SEAP reporter); format: cell-based; conditions: Homo sapiens, HEK-Blue hNOD2, HEK-Blue-hNOD2 cells, NOD2 ligand stimulation, SEAP reporter; read-out: hNOD2 IC50
Protocol: Materials: Human NOD32-expressing 1TEK293 cells, HEK-Blue™-hNOD2 cells, were developed by Invivogen (catalogue number: hkb-hnod2) using co-transfection of the human NOD2 gene and an optimized secreted embryonic alkaline phosphatase (SEAP) reporter gene into HTEK293 cells. The cell maintenance medium consisted of DMEM (Giboc, 21063-029), heat inactivated FBS, penicillin (100 U/mL), streptomycin (100 μg/mL), Normocin (100 μg/mL), Blasticidin (30 μg/mL), and Zeocin (100 μg/mL). HEK-Blue™-hNOD2 cells were transferred to assay medium consisting of DMEM (Giboc, 21063-029), heat inactivated FBS, penicillin (100 U/mL) and streptomycin (100 μg/mL) prior to stimulation. Stimulation with a NOD2 ligand, L18-MDP (Invivogen, catalogue number: tlrl-lmdp) activated NF-κB and AP-1 which induced the production of SEAP. Levels of SEAP were determined with HEK-Blue™ Detection (referred to as QUANTI-Blue solution), a cell culture medium that allows for real-time detection of SEAP. QUANTI-Blue solution was prepared by adding 1 mL of QB reagent and 1 mL of QB buffer to 98 mL of sterile H2O. Test compounds were prepared into a 10 mM DMSO solution and were serially diluted into 10 points using a 3-fold dilution in a 384 well plate using a TECAN EVO200.
Method: In a 384 well plate, 40 nL of test compound was dispensed using Echo550. HEK-Blue™-hNOD2 cells (Invivogen) were prepared into a cell suspension and 40 μL of the cell suspension (12500 cells per well) was dispensed into the 384 well plate. To activate NOD2 signaling, 40 nL of L18-MDP (final concentration of 0.5 ng/mL) was added and the plate was incubated at 37° C. in a CO2 incubator for 24 hours. After the 24-hour incubation, 5 μL of the induced HEK-Blue hNOD2 cell supernatant was transferred to a new 384-well plate, centrifuged, and 45 μL of QUANTI-Blue solution was added per well and incubated for 3 hours at 37° C. SEAP levels were measured using an Ensight at 620 nm. Percent inhibition of NOD2 signaling was determined using the following equation: (high control−test compound signal)/(High control−low control)×100. The reaction high control was determined using wells with DMSO, cells, L18-MDP, and QUANTI-Blue solution. The reaction low control was determined using wells with DMSO, cells, and QUANTI-Blue solution. 4-parametric curve fit was used to determine the test compound concentration that results in 50% reduction of L18-MDP-driven human NOD2 signaling.
Using the assay described above, inhibition of hNOD2 signaling was also evaluated for GSK 2983559 (Haile at al., J. Med. Chem. 2019, 62, 14, 6482-6494), a known RIPK2 kinase inhibitor: […]

T1 sequence (O43353 1-299 limits assumed): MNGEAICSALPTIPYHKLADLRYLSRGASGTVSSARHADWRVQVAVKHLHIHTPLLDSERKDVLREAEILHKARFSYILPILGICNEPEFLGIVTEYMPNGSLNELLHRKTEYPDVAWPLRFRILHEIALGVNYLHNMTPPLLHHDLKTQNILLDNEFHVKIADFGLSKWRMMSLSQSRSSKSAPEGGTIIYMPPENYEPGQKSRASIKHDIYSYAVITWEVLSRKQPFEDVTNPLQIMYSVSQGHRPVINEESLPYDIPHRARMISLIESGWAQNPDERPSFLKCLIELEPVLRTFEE

SMILES | IC50 (RIPK2 enzyme) | IC50 (human NOD2 signaling)
Cc1cc(CC(=O)Nc2cnn(C(C)(C)C)c2)c(F)cc1Oc1ccnc2ccc(-c3c[nH]nc3O)cc12 [Compound 478, N-(1-(tert-butyl)-1H-pyrazol-4-yl)-2-(2-fluoro-4-((6-(3-hydroxy-1H-pyrazol-4-yl)quinolin-4-yl)oxy)-5-methylphenyl)acetamide] | < 2.5 nM | 26 nM
COc1n[nH]cc1-c1ccc2nccc(Oc3cc(F)c(CC(=O)Nc4cnn(C(C)(C)C)c4)cc3C)c2c1 [Compound 480, N-(1-(tert-butyl)-1H-pyrazol-4-yl)-2-(2-fluoro-4-((6-(3-methoxy-1H-pyrazol-4-yl)quinolin-4-yl)oxy)-5-methylphenyl)acetamide] | < 2.5 nM | 0.8 nM
CCc1nc(-c2ccc3nccc(Oc4cc(F)c(CC(=O)Nc5cnn(C(C)(C)C)c5)cc4C)c3c2)n[nH]1 [Compound 483, N-(1-(tert-butyl)-1H-pyrazol-4-yl)-2-(4-((6-(5-ethyl-1H-1,2,4-triazol-3-yl)quinolin-4-yl)oxy)-2-fluoro-5-methylphenyl)acetamide] | < 2.5 nM | 0.6 nM
Cc1cc(CC(=O)Nc2cnn(C(C)(C)C)c2)c(F)cc1Oc1ccnc2ccc(-c3nc[nH]n3)cc12 [Compound 484, 2-(4-((6-(1H-1,2,4-triazol-3-yl)quinolin-4-yl)oxy)-2-fluoro-5-methylphenyl)-N-(1-(tert-butyl)-1H-pyrazol-4-yl)acetamide] | < 2.5 nM | 0.4 nM
[2H]C([2H])([2H])c1cc(CC(=O)Nc2cnn(C(C)(C)C)c2)ccc1Oc1ccnc2ccc(S(=O)(=O)C([2H])([2H])[2H])cc12 [Compound 485, N-(1-(tert-butyl)-1H-pyrazol-4-yl)-2-(3-(methyl-d3)-4-((6-((methyl-d3)sulfonyl)quinolin-4-yl)oxy)phenyl)acetamide] | < 2.5 nM | 0.3 nM
CSc1ccc2nccc(Oc3ccc(CC(=O)Nc4cnn(C(C)(C)C)c4)cc3C)c2c1 [Compound 486, N-(1-(tert-butyl)-1H-pyrazol-4-yl)-2-(3-methyl-4-((6-(methylthio)quinolin-4-yl)oxy)phenyl)acetamide] | < 2.5 nM | 1.8 nM
[2H]C([2H])([2H])NC(=O)c1ccc2nccc(Oc3ccc(CC(=O)Nc4cnn(C(C)(C)C)c4)cc3C)c2c1 [Compound 491, 4-(4-(2-((1-(tert-butyl)-1H-pyrazol-4-yl)amino)-2-oxoethyl)-2-methylphenoxy)-N-(methyl-d3)quinoline-6-carboxamide] | < 2.5 nM | 0.1 nM
[2H]C([2H])([2H])NC(=O)c1cc2c(Oc3ccc(CC(=O)Nc4cnn(C(C)(C)C)c4)cc3C)ccnc2cc1F [Compound 493, 4-(4-(2-((1-(tert-butyl)-1H-pyrazol-4-yl)amino)-2-oxoethyl)-2-methylphenoxy)-7-fluoro-N-(methyl-d3)quinoline-6-carboxamide] | < 2.5 nM | 0.2 nM
Cc1cc(CC(=O)Nc2cnn(C(C)(C)C)c2)c(F)cc1Oc1ccnc2ccc(-c3cnccc3C)cc12 [Compound 507, N-(1-(tert-butyl)-1H-pyrazol-4-yl)-2-(2-fluoro-5-methyl-4-((6-(4-methylpyridin-3-yl)quinolin-4-yl)oxy)phenyl)acetamide] | < 2.5 nM | 0.3 nM
Cc1cc(CC(=O)Nc2cnn(C(C)(C)C)c2)c(F)cc1Oc1ccnc2ccc(-c3cccnc3C)cc12 [Compound 508, N-(1-(tert-butyl)-1H-pyrazol-4-yl)-2-(2-fluoro-5-methyl-4-((6-(2-methylpyridin-3-yl)quinolin-4-yl)oxy)phenyl)acetamide] | < 2.5 nM | 2.5 nM
[2H]C([2H])([2H])NC(=O)c1ccc2nccc(Oc3cc(F)c(CC(=O)Nc4cnn(C56CC(C5)C6)c4)cc3Cl)c2c1 [Compound 511, 4-(4-(2-((1-(bicyclo[1.1.1]pentan-1-yl)-1H-pyrazol-4-yl)amino)-2-oxoethyl)-2-chloro-5-fluorophenoxy)-N-(methyl-d3)quinoline-6-carboxamide] | < 2.5 nM | 8 nM
Cc1cc(CC(=O)Nc2cnn(C(C)(C)C)c2)c(F)cc1Oc1ccnc2ccc(C(=O)NC3(C)COC3)cc12 [Compound 514, 4-(4-(2-((1-(tert-butyl)-1H-pyrazol-4-yl)amino)-2-oxoethyl)-5-fluoro-2-methylphenoxy)-N-(3-methyloxetan-3-yl)quinoline-6-carboxamide] | < 2.5 nM | 1.5 nM
Cc1cc(CC(=O)Nc2cnn(C(C)(C)C)c2)c(F)cc1Oc1ccnc2ccc(C(=O)N(C)C3(C)CC3)cc12 [Compound 519, 4-(4-(2-((1-(tert-butyl)-1H-pyrazol-4-yl)amino)-2-oxoethyl)-5-fluoro-2-methylphenoxy)-N-methyl-N-(1-methylcyclopropyl)quinoline-6-carboxamide] | < 2.5 nM | 0.6 nM
Cc1ccnnc1-c1ccc2nccc(Oc3cc(F)c(CC(=O)Nc4cnn(C(C)(C)C)c4)cc3Cl)c2c1 [Compound 520, N-(1-(tert-butyl)-1H-pyrazol-4-yl)-2-(5-chloro-2-fluoro-4-((6-(4-methylpyridazin-3-yl)quinolin-4-yl)oxy)phenyl)acetamide] | < 2.5 nM | 0.7 nM
Cc1cc(CC(=O)Nc2cnn(C(C)(C)C)c2)c(F)cc1Oc1ccnc2ccc(-c3nnc(CO)cc3C)cc12 [Compound 521, N-(1-(tert-butyl)-1H-pyrazol-4-yl)-2-(2-fluoro-4-((6-(6-(hydroxymethyl)-4-methylpyridazin-3-yl)quinolin-4-yl)oxy)-5-methylphenyl)acetamide] | < 2.5 nM | 2.2 nM
Cc1cc(CC(=O)Nc2cnn(C(C)(C)C)c2)c(F)cc1Oc1ccnc2ccc(-c3ncccc3C(F)(F)F)cc12 [Compound 522, N-(1-(tert-butyl)-1H-pyrazol-4-yl)-2-(2-fluoro-5-methyl-4-((6-(3-(trifluoromethyl)pyridin-2-yl)quinolin-4-yl)oxy)phenyl)acetamide] | 8.6 nM | 25.8 nM
Cc1cc(CC(=O)Nc2cnn(C(C)(C)C)c2)c(F)cc1Oc1ccnc2ccc(-c3cncnc3C)cc12 [Compound 524, N-(1-(tert-butyl)-1H-pyrazol-4-yl)-2-(2-fluoro-5-methyl-4-((6-(4-methylpyrimidin-5-yl)quinolin-4-yl)oxy)phenyl)acetamide] | < 2.5 nM | 0.7 nM
Cc1cc(CC(=O)Nc2cnn(C(C)(C)C)c2)c(F)cc1Oc1ccnc2ccc(-c3ccnnc3C)cc12 [Compound 525, N-(1-(tert-butyl)-1H-pyrazol-4-yl)-2-(2-fluoro-5-methyl-4-((6-(3-methylpyridazin-4-yl)quinolin-4-yl)oxy)phenyl)acetamide] | < 2.5 nM | 5.5 nM
Cc1cc(CC(=O)Nc2cnn(C(C)(C)C)c2)c(F)cc1Oc1ccnc2ccc(-c3c(C)ncnc3C)cc12 [Compound 526, N-(1-(tert-butyl)-1H-pyrazol-4-yl)-2-(4-((6-(4,6-dimethylpyrimidin-5-yl)quinolin-4-yl)oxy)-2-fluoro-5-methylphenyl)acetamide] | < 2.5 nM | 16.1 nM
CC(C)(C)n1cc(NC(=O)Cc2cc(Cl)c(Oc3ccnc4ccc(CS(C)(=O)=O)cc34)cc2F)cn1 [Compound 561, N-(1-(tert-butyl)-1H-pyrazol-4-yl)-2-(5-chloro-2-fluoro-4-((6-((methylsulfonyl)methyl)quinolin-4-yl)oxy)phenyl)acetamide] | < 2.5 nM | 15.4 nM
CNC(=O)c1cc2c(Oc3cc(F)c(CC(=O)Nc4cnn(C(C)(C)C)c4)cc3C)ccnc2cc1C [Compound 564, 4-(4-(2-((1-(tert-butyl)-1H-pyrazol-4-yl)amino)-2-oxoethyl)-5-fluoro-2-methylphenoxy)-N,7-dimethylquinoline-6-carboxamide] | < 2.5 nM | 10.8 nM
